The term IC50 denotes the concentration that gives 50% inhibition.

The target of this test is α7 nAChR (Homo sapiens, UniProt P36544). The experiment in a line: cell-based. Set-up: expressed in transfected cells; host or cells: Xenopus laevis oocytes injected with cRNA transcribed from α7-pSHE; species or system Human (expressed in Xenopus laevis oocytes). Conditions: Inhibition phase potency.
Sequence of α7 nAChR (P36544 23-502 limits assumed): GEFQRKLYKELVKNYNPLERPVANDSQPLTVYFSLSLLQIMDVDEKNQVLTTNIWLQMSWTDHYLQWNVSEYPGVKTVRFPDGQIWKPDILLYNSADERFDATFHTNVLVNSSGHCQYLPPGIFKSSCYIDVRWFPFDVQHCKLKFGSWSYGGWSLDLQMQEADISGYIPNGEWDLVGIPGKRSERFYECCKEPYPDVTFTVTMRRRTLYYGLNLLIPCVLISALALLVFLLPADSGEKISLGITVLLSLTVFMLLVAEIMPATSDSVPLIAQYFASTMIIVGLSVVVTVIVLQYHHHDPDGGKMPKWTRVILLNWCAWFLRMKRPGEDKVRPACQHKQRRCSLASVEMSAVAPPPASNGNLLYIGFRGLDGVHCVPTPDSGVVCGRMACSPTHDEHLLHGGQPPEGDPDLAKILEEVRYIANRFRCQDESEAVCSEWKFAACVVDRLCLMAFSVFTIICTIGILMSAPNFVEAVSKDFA

`CC[C@H](C)[C@H](NC(=O)CNC(=O)[C@H](C)NC(=O)CNC(=O)[C@@H](NC(=O)[C@@H]1CCCN1C(=O)[C@@H](NC(=O)[C@H](CC(=O)O)NC(=O)[C@H](CS)NC(=O)[C@H](CCC(=O)O)NC(=O)[C@@H](N)Cc1ccc(O)cc1)[C@@H](C)CC)[C@@H](C)CC)C(=O)N[C@@H](CS)C(=O)N[C@@H](C)C(=O)N[C@@H](CO)C(=O)N[C@@H](Cc1ccc(O)cc1)C(=O)N[C@@H](CCC(N)=O)C(=O)N[C@H](C(=O)N[C@@H](CCC(N)=O)C(=O)N[C@H](C(=O)N[C@@H](CC(N)=O)C(=O)N[C@@H](CO)C(=O)N[C@@H](CCCNC(=N)N)C(=O)N[C@@H](CCCNC(=N)N)C(=O)N[C@@H](CCCNC(=N)N)C(=O)N[C@@H](C)C(=O)N[C@@H](CCCNC(=N)N)C(=O)N[C@@H](CO)C(=O)N[C@H](C(=O)N[C@@H](C)C(=O)N[C@@H](CO)C(=O)O)C(C)C)[C@@H](C)O)[C@@H](C)O` [delta SCoV2P]: it took 100 µM to reach half-maximal inhibition (IC50).

Source of the values: article PMC10101490 (The Journal of Biological Chemistry, 2023).
